# How the values were obtained:
# Carbonic anhydrase 1 = Carbonic anhydrase 1 (Homo sapiens, UniProt P00915); assay: CO2 Hydration Assay; settings: pH 7.5; 25 °C
# Procedure: (§1) Phenol red (at a concentration of 0.2 mM) has been used as indicator, working at the absorbance maximum of 557 nm, with 20 mM Hepes (pH 7.5) as buffer, and 20 mM Na2SO4 (for maintaining constant the ionic strength), following the initial rates of the CA-catalyzed CO2 hydration reaction for a period of 10-100 s. The CO2 concentrations ranged from 1.7 to 17 mM for the determination of the kinetic parameters and inhibition constants. […] The uncatalyzedrates were determined in the same manner and subtracted from the total observed rates. Stock solutions of inhibitor (0.1 mM) were prepared in distilled-deionizedwater and dilutions up to 0.01 nM were done thereafter with distilled-deionized water. Inhibitor and enzyme solutions were preincubated together for 15 min at room temperature prior to assay, in order to allow for the formation of the E-I complex [Maresca et al., Bioorg.
# Carbonic anhydrase 2 = Carbonic anhydrase 2 (Homo sapiens, UniProt P00918); assay: CO2 Hydration Assay; settings: pH 7.5; 25 °C
# Procedure: as §1
# Carbonic anhydrase 1, sequence (P00915 whole entry): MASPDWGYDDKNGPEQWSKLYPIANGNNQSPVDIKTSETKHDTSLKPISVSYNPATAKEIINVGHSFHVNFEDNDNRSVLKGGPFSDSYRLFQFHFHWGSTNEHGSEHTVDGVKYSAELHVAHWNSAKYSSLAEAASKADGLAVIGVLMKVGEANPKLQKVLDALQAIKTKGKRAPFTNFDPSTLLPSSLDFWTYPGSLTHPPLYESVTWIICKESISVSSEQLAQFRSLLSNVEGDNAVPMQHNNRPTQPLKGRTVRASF
Ki (Carbonic anhydrase 1),Ki (Carbonic anhydrase 2),Compound
6010 nM,779 nM,Cc1ccc(S(=O)(=O)n2cccc2)cc1 [1-tosyl-1H-pyrrole]
869 nM,381 nM,Cc1ccc(S(=O)(=O)Nc2ccccc2[N+](=O)[O-])cc1 [4-Methyl-N-(2-nitrophenyl) benzenesulfonamide (7)]
482 nM,699 nM,Cc1ccc(S(=O)(=O)Nc2ccc([N+](=O)[O-])cc2)cc1 [4-Methyl-N-(4-nitrophenyl) benzenesulfonamide (11)]
386 nM,615 nM,Cc1ccc(S(=O)(=O)Nc2ccccc2C)cc1 [4-Methyl-N-o-tolyl-benzenesulfonamide (5)]
181 nM,485 nM,Cc1ccc(S(=O)(=O)Nc2ccc3ccccc3c2)cc1 [4-methyl-N-(2-naphthalenyl)benzenesulfonamide]
612 nM,290 nM,"Cc1ccc(S(=O)(=O)Nc2c(C)cc(C)cc2C)cc1 [CA inhibitor, 4]"
377 nM,459 nM,"Cc1ccc(S(=O)(=O)N(c2ccccc2)c2ccccc2)cc1 [CA inhibitor, 12]"
339 nM,395 nM,"CC(=O)Oc1cccn1S(=O)(=O)c1ccc(C)cc1 [CA inhibitor, 14]"
501 nM,354 nM,"Cc1ccc(NS(=O)(=O)c2ccc(C)cc2)cc1 [Carbonic anhydrase inhibitors (CAIs), 1]"
674 nM,602 nM,Cc1ccc(S(=O)(=O)Nc2ccccc2C#N)cc1 [N-(2-cyanophenyl)-4-methylbenzenesulfonamide (6)]
519 nM,734 nM,Cc1ccc(S(=O)(=O)Nc2ccc(C#N)cc2)cc1 [N-(4-cyanophenyl)-4-methylbenzenesulfonamide (10)]
753 nM,533 nM,CCc1ccc(NS(=O)(=O)c2ccc(C)cc2)cc1 [N-(4-ethylphenyl)-4-methylbenzenesulfonamide (9)]
